Laboratory results taken from patent publication US20250084041A1, “ANTIMICROBIAL COMPOUNDS AND METHODS” (Curza Global, LLC, priority 2021, published 2025).
Structures can show the parent of a compound that is named as a salt. Where two headings read alike, the source gives them in different places.

Key:
S. aureus (Sa) = assay: Broth microdilution MIC, S. aureus; assay type: cell-based; settings: for MIC: Staphylococcus aureus, read-out: Sa + bicarb 25 (MIC)
Protocol: (§1) A certified BSL-2 laboratory was used for testing. Compounds were evaluated using the broth microdilution minimum inhibitory concentration (MIC) and minimum bactericidal concentration (MBC) assays defined by Clinical and Laboratory Standards Institute (CLSI) in the M26-A guideline against S. aureus (Sa), E. coli (Ec), K. pneumoniae (Kp), A. baumannii (Ab), E. faecalis (Ef) and P. aeruginosa (Pa).
(§2) MICs were determined using the Clinical Laboratory and Standards Institute (CLSI) Broth Microdilution Method with slight modification. Clinical and Laboratory Standards Institute (2012). “Methods for dilution antimicrobial susceptibility tests for bacteria that grow aerobically; approved standard, 9th ed. M07-A9. Clinical and Laboratory Standards Institute, Wayne, PA.” Serial two-fold dilutions of compounds are prepared in sterile clear round-bottom 96-well plates.
(§3) To prepare microdilution trays, two-fold dilutions of antimicrobial agent are prepared in growth medium: Cation-Adjusted Mueller-Hinton Broth (CAMHB), or CAMHB supplemented with sodium bicarbonate (25 mM final concentration prepared from a 1.0 M stock solution) or CAMHB supplemented with heat inactivated human serum (Fisher Cat. #BP2657100) 0-50% by adding 200 μL of the highest concentration to be tested (64 μg/mL, for example) in row A, mixing and transferring 100 μL from row A to 100 μL growth medium in row B, then repeating the mixing and transferring through row H of the 96-well plate, discarding the excess 100 μL remaining. This slight modification to the CLSI protocol enables evaluation of MICs for 3 compounds per plate in triplicate, albeit with only 8 compound dilutions (CLSI protocol enables 2 compounds in triplicate with 10 dilutions). Bacterial suspensions are added to a final concentration of 5×10^4 CFU/well by adding 5 μL of a 1:10 dilution of a 0.5 McFarland suspension (1×10^8 CFU/mL) for each bacterium evaluated. Bacterial suspensions were prepared using the growth method described by CLSI. Well-isolated colonies (3-5 from an agar plate) were selected using a sterile loop and used to inoculate a tube containing 4 mL of CAMHB. The cultures are incubated at 35±2° C. until it achieves or exceeds the turbidity of the 0.5 McFarland standard, determined by measuring A600nm (usually two to six hours). When growth exceeds a 0.5 McFarland standard, the turbidity is adjusted with broth to be equivalent to a 0.5 McFarland standard.

E. coli (Ec) = assay: Broth microdilution MIC, E. coli; assay type: cell-based; settings: for MIC: Escherichia coli, read-out: E. coli + bicarb 25 (MIC)
Protocol: as §1, §2, §3

P. aeruginosa (Pa) = assay: Broth microdilution MIC, P. aeruginosa; assay type: cell-based; settings: for MIC: Pseudomonas aeruginosa, read-out: Pa + bicarb 25 (MIC)
Protocol: as §1, §2, §3

A. baumannii (Ab) = assay: Broth microdilution MIC, A. baumannii; assay type: cell-based; settings: for MIC: Acinetobacter baumannii, read-out: Ab + bicarb 25 (MIC)
Protocol: as §1, §2, §3

E. faecalis (Ef) = assay: Broth microdilution MIC, E. faecalis; assay type: cell-based; settings: Enterococcus faecalis, read-out: Ef + bicarb 25 (MIC)
Protocol: as §1, §2, §3

E. coli S30 extract = assay: E. coli S30 extract: inhibition of bacterial protein synthesis (luciferase); assay type: biochemical; settings: 37° C. 1 hour
Protocol: E. coli S30 extract: Inhibition of bacterial protein synthesis was determined using the E. coli S30 Extract System for Circular DNA (Promega catalog #L-2010) and Luciferase Assay Reagent (Promega catalog #E1500) with slight modifications to a published protocol. Fyfe, C., Sutcliffe, J. A. and Grossman, T. H. (2012) “Development and characterization of a Pseudomonas aeruginosa in vitro coupled transcription-translation assay system for evaluation of translation inhibitors” J. Microbiol. Methods 90(3), 256-261.
Compounds were serial diluted in 0.5 mL microcentrifuge tubes by mixing and transferring 50 μL from the highest concentration to 50 μL of water, mixing and transferring 50 μL of this 2-fold dilution to 50 μL of water. This mixing and transferring was repeated so that there are a total of 8 tubes with serial dilutions of compound at 10× the desired screening concentration that are ultimately diluted to 1× by the addition of S30 luciferase synthesis mixture. Serial dilutions of compounds were added (2 μL) to wells in a black round bottom 96-well plate. Water (2 μL) was used as a “no inhibitor” control in 4 wells/plate. No DNA control reaction mixture (20 μL; see below) was used as a control in 4 wells/plate for background luminescence. S30 luciferase synthesis mixture (18 μL; see below) was added to wells with compounds or water mixture and incubated at 37° C. for 1 hour. Reactions were stopped by transferring to 4° C. refrigerator for 5 minutes then 25 μL of luciferase activity mix was added. Luminescence was measured using a BioTek Synergy HTX plate reader. % Inhibition was determined relative to no inhibitor controls.
• 445 μL S30 extract, circular • 712 μL S30 Premix without amino acids • 4.45 μL pBESTluc™ DNA (1 μg/μL) • 78 μL complete amino acid mixture • 267 μL water
• 20 μL S30 extract, circular • 32 μL S30 Premix without amino acids • 7 μL complete amino acid mixture • 21 μL water

[1] = target: Rabbit Reticulocyte Lysate; assay: Rabbit Reticulocyte Lysate: inhibition of eukaryotic protein synthesis (luciferase); assay type: biochemical; settings: 30° C. 90 minutes, read-out: Retic. IC50
Protocol: Inhibition of eukaryotic protein synthesis was determined using the Rabbit Reticulocyte Lysate System, Nuclease-Treated from Promega (catalog #L-4960) with slight modifications to the manufacturer's protocol. Compounds were serial diluted in 0.5 mL microcentrifuge tubes by mixing and transferring 50 μL from the highest concentration to 50 μL of water, mixing and transferring 50 μL of this 2-fold dilution to 50 μL of water. This mixing and transferring was repeated so that there are a total of 8 tubes with serial dilutions of compound at 10× the desired screening concentration that are ultimately diluted to 1× by the addition of rabbit reticulocyte luciferase synthesis mixture. Serial dilutions of compounds were added ([…]) to wells in a black round bottom 96-well plate. Water (2.5 μL) was used as a “no inhibitor” control in 4 wells/plate. No RNA control reaction mixture ([…]; see below) was used as a control in 4 wells/plate for background luminescence. Rabbit reticulocyte luciferase synthesis mixture (22.5 μL; see below) was added to wells with compounds or water mixture and incubated at 30° C. for 90 minutes. Luciferase assay reagent (25 μL) was added with luminescence measured using a BioTek Synergy HTX plate reader. % Inhibition was determined relative to no inhibitor controls.
• 1,000 μL rabbit reticulocyte lysate • 5.7 μL Luciferase Control RNA (1 μg/μL) • 26 μL complete amino acid mixture • 395 μL water
• 70 μL rabbit reticulocyte lysate • 2 μL complete amino acid mixture • 28 μL water

[2] = S. aureus, CAMHB supplemented with sodium bicarbonate 25 mM
[3] = E. coli, CAMHB supplemented with sodium bicarbonate 25 mM
[4] = P. aeruginosa, CAMHB supplemented with sodium bicarbonate 25 mM
[5] = E. faecalis, CAMHB supplemented with sodium bicarbonate 25 mM

Structure (SMILES) | MIC (S. aureus (Sa)) [µg/mL] | MIC (E. coli (Ec)) [µg/mL] | MIC (P. aeruginosa (Pa)) [µg/mL] | MIC (A. baumannii (Ab)) [µg/mL] | MIC (E. faecalis (Ef)) [µg/mL] | IC50 (E. coli S30 extract) [µM] | IC50 [1] [µM] | MIC (S. aureus (Sa); [2]) [µg/mL] | MIC (E. coli (Ec); [3]) [µg/mL] | MIC (P. aeruginosa (Pa); [4]) [µg/mL] | MIC (A. baumannii (Ab); A. baumannii, CAMHB supplemented with sodium bicarbonate 25 mM) [µg/mL] | MIC (E. faecalis (Ef); [5]) [µg/mL] | Sa + bicarb 25 (MIC) (S. aureus (Sa); [2]) | E. coli + bicarb 25 (MIC) (E. coli (Ec); [3]) | Pa + bicarb 25 (MIC) (P. aeruginosa (Pa); [4]) | IC50 (E. coli S30 extract; hydrochloride salt) [µM] | Ab + bicarb 25 (MIC) (A. baumannii (Ab); A. baumannii, CAMHB supplemented with sodium bicarbonate 25 mM, hydrochloride salt)
CC(C)(N)C(=O)N1CCN(C(=O)Nc2ccn(C3=CCC(CN4CC[C@@H](CN)C4)CC3)c(=O)n2)CC1 (stereo in doubt) [Compound 24, (R)-4-(2-Amino-2-methylpropanoyl)-N-(1-(4-((3-(aminomethyl)pyrrolidin-1-yl)methyl)cyclohex-1-en-1-yl)-2-oxo-1,2-dihydropyrimidin-4-yl)piperazine-1-carboxamide hydrochloride salt] | < 8 | < 8 | > 32 | > 32 | > 32 | < 0.5 | ≥ 1 | – | – | – | – | – | – | – | – | – | –
CC(C)(N)C(=O)N1CCN(C(=O)Nc2ccn(C3CCC(CN(CCF)C4CCC(N)CC4)CC3)c(=O)n2)CC1 (stereo in doubt) [Compound 48, trans-cis-4-(2-Amino-2-methylpropanoyl)-N-(1-(4-(((4-aminocyclohexyl)(2-fluoroethyl)amino)methyl)cyclohexyl)-2-oxo-1,2-dihydropyrimidin-4-yl)piperazine-1-carboxamide hydrochloride salt] | 8 to 32 | 8 to 32 | > 32 | > 32 | 8 to 32 | < 0.5 | ≥ 1 | – | – | – | – | – | – | – | – | – | –
CC(C)(N)C(=O)N1CCN(C(=O)Nc2ccn(C3=CCC(CN[C@H]4CC[C@H](N)CC4)CC3)c(=O)n2)CC1 (stereo partly drawn) [Compound 1, 4-(2-Amino-2-methylpropanoyl)-N-(1-(4-(((trans-4-aminocyclohexyl)amino)methyl)cyclohex-1-en-1-yl)-2-oxo-1,2-dihydropyrimidin-4-yl)piperazine-1-carboxamide hydrochloride salt] | < 8 | < 8 | > 32 | > 32 | 8 to 32 | < 0.5 | ≥ 1 | – | – | – | – | – | – | – | – | – | –
CC(C)(N)C(=O)N1CCN(C(=O)Nc2ccn(C3=CCC(CN4C[C@@H]5[C@@H](CN)[C@@H]5C4)CC3)c(=O)n2)CC1 (stereo partly drawn) [Compound 2, 4-(2-Amino-2-methylpropanoyl)-N-(1-(4-((exo-6-(aminomethyl)-3-azabicyclo[3.1.0]hexan-3-yl)methyl)cyclohex-1-en-1-yl)-2-oxo-1,2-dihydropyrimidin-4-yl)piperazine-1-carboxamide hydrochloride salt] | – | – | – | – | – | < 0.5 | ≥ 1 | < 8 | < 8 | > 32 | > 32 | < 8 | – | – | – | – | –
CC(C)(N)C(=O)N1CCN(C(=O)Nc2ccn(C3=CCC(CN[C@H]4CC[C@H](N)C4)CC3)c(=O)n2)CC1 (stereo partly drawn) [Compound 3, 4-(2-Amino-2-methylpropanoyl)-N-(1-(4-((((1S,3S)-3-aminocyclopentyl)amino)methyl)cyclohex-1-en-1-yl)-2-oxo-1,2-dihydropyrimidin-4-yl)piperazine-1-carboxamide hydrochloride salt] | < 8 | < 8 | > 32 | > 32 | > 32 | < 0.5 | ≥ 1 | – | – | – | – | – | – | – | – | – | –
CC(C)(N)C(=O)N1CCN(C(=O)Nc2ccn(C3=CCC(CN4CCCC(N)CC4)CC3)c(=O)n2)CC1 (centres unmarked) [Compound 4, 4-(2-Amino-2-methylpropanoyl)-N-(1-(4-((4-aminoazepan-1-yl)methyl)cyclohex-1-en-1-yl)-2-oxo-1,2-dihydropyrimidin-4-yl)piperazine-1-carboxamide hydrochloride salt] | < 8 | < 8 | > 32 | > 32 | < 8 | < 0.5 | ≥ 1 | – | – | – | – | – | – | – | – | – | –
CC(C)(N)C(=O)N1CCN(C(=O)Nc2ccn(C3CCC(CN4C[C@@H]5[C@@H](N)[C@@H]5C4)CC3)c(=O)n2)CC1 (stereo partly drawn) [Compound 5, 4-(2-Amino-2-methylpropanoyl)-N-(1-(4-((exo-6-amino-3-azabicyclo[3.1.0]hexan-3-yl)methyl)cyclohexyl)-2-oxo-1,2-dihydropyrimidin-4-yl)piperazine-1-carboxamide hydrochloride salt] | – | – | – | 8 to 32 | < 8 | – | ≥ 1 | – | – | – | – | – | +++ (An MIC value (μg/mL) that is less than 8 μg/mL) | +++ (An MIC value (μg/mL) that is less than 8 μg/mL) | + (An MIC value (μg/mL) that is 32 μg/mL or greater) | < 0.5 | –
CC(C)(N)C(=O)N1CCN(C(=O)Nc2ccn(C3CCC(CN4C[C@@H]5[C@@H](N)[C@@H]5C4)CC3)c(=O)n2)CC1 (stereo partly drawn) [Compound 6, 4-(2-Amino-2-methylpropanoyl)-N-(1-(cis-4-((exo-6-amino-3-azabicyclo[3.1.0]hexan-3-yl)methyl)cyclohexyl)-2-oxo-1,2-dihydropyrimidin-4-yl)piperazine-1-carboxamide hydrochloride salt] | – | – | – | – | – | – | ≥ 1 | < 8 | < 8 | > 32 | – | 8 to 32 | – | – | – | ≥ 1 | + (An MIC value (μg/mL) that is 32 μg/mL or greater)
